The target of assay [1] is BACE 1 (Beta Secretase enzyme) (Homo sapiens (Human), UniProt P56817). In words: In vitro enzymatic BACE FRET assay. Format: biochemical. As to conditions: enzyme 0.2 nM, FRET substrate 50 nM, pH 4.2. The protocol: In Vitro Enzymatic BACE FRET (Fluorescence Resonance Energy Transfer) Assay (Enzyme Assay Data in the Example Table I)
The assay buffer used in this screen is 0.05 M acetate, pH 4.2, 10% DMSO final, 100 uM genapol (which is a nonionic detergent, below its Critical Micelle Concentration). […] This assay is effectively started by the addition of FRET substrate (50 nM) and the combination is incubated for one hour. The FRET assay is terminated with by addition of Tris buffer, which raises the pH to neutrality, and the fluorescence is determined. The FRET substrate is a peptide with commercially available fluorophore and quencher, on opposite sides of the BACE cleavage site. Proteolytic cleavage of the FRET substrate releases quenching of fluorescence (excitation […] and […]).

Assay [2] has as its system Aβ40 in conditioned medium of cells expressing amyloid precursor protein. The experiment in a line: In vitro BACE cell-based assay (HEK cell assay), Aβ40 sandwich ELISA. The settings on record: Aβ40 in supernatant after 24 h incubation. The protocol: In Vitro BACE Cell-Based Assay
The cell-based assay measures inhibition or reduction of Aβ40 in conditioned medium of test compound treated cells expressing amyloid precursor protein.
Cells stably expressing Amyloid Precursor Protein (APP) were plated at a density of 40K cells/well in 96 well plates (Costar). The cells were cultivated for 24 hours at 37° C. and 5% CO2 in DMEM supplemented with 10% FBS. The test compounds were then added to cells in 10-point dose response concentrations with the starting concentration being either 100 μM or 10 μM. The compounds were diluted from stock solutions in DMSO and the final DMSO concentration of the test compounds on cells was 0.1%. After 24 h of incubation with the test compounds the supernatant conditioned media was collected and the Aβ 40 levels were determined using a sandwich ELISA. The IC50 of the compound was calculated from the percent of control or percent inhibition of Aβ 40 as a function of the concentration of the test compound.
The sandwich ELISA to detect Aβ 40 was performed in 96 well microtiter plates, which were pre-treated with goat anti-rabbit IgG (Pierce). The capture and detecting antibody pair that were used to detect Aβ 40 from cell supernatants were affinity purified pAb40 (Biosource) and biotinylated 6E10 (Signet Labs Inc.), respectively. The optimal concentration for the pAb40 antibody was 3 μg/ml in Superblock/TBS (Pierce) that was supplemented with 0.05% Tween 20 (Sigma).
Cellular supernatants were incubated with the capture antibody for 3 h at 4° C., followed by 3 wash steps in TBS-tween (0.05%). The detecting antibody incubation was for 2 h at 4° C., again followed by the wash steps as described previously. The final readout of the ELISA is Time-Resolved Fluorescence (counts per minute) using Delfia reagents Streptavidin-Europium and Enhancement solutions (Perkin Elmer) and the Victor 2 multilabel counter (Perkin Elmer).
(In general: An ELISA detects its analyte on a solid surface through an enzyme-linked reagent.)

The next assay deals with Cathepsin D (Cat D) (Homo sapiens (Human), UniProt P07339). The experiment in a line: In vitro enzymatic Cathepsin D (Cat D) FRET assay. As to conditions: Cat D enzyme 9 nM, FRET substrate 20 nM, pH 3.5. The class given is biochemical. The protocol: In Vitro Enzymatic Cathepsin D (Cat D) FRET (Fluorescence Resonance Energy Transfer) Assay
Recombinant Cat D was expressed in CHO cells. The assay buffer for CathepsinD is 0.05 M citrate pH 3.5, 10% DMSO final, 5 mM CHAPS. The Cat D enzyme (9 nM) is pre-incubated for one hour with inhibitors, typically in about luL of DMSO according to a serial dilution, is added thereto. The assays are effectively started by the addition of different FRET substrates (20 nM for Cat D) and the combination is incubated for one hour. The FRET assay is terminated with by addition of Tris buffer, which raises the pH to neutrality, and the fluorescence is determined. The FRET substrate is a peptide with commercially available fluorophore and quencher, on opposite sides of the BACE cleavage site. The Cat D substrate peptide sequence is based on sequence #1 of Table 1 from Gulnik et al. FEB S Letters v413 p 379-384 1997. Proteolytic cleavage of the FRET substrate releases quenching of fluorescence (Cat D excitation 500 nm and emission 580 nm).
Where available, the in-vitro Cat D FRET assay data for each of the Examples, conducted by the first procedure, is provided.

Setting [3] is: average IC50, read-out: BACE 1 FRET assay.
The mark [4] stands for this setting: Homo sapiens, HEK293, 24 h, average IC50, read-out: HEK cell assay.
[5] abbreviates: class symbols, read-out: BACE 1 FRET assay (IC50 class).
Setting [6] is: Homo sapiens, HEK293, 24 h, class symbols, read-out: HEK cell assay (IC50 class).

From patent publication US8957083B2, “Spiro-amino-imidazolone and spiro-amino-dihydro-pyrimidinone compounds as beta-secretase modulators and methods of use” (Amgen Inc., priority 2010, dated 2015) come the findings set out here.

Molecules are shown by their SMILES. Where two headings read alike, the source gives them in different places.

Sequence of BACE 1 (Beta Secretase enzyme) (P56817 46-501): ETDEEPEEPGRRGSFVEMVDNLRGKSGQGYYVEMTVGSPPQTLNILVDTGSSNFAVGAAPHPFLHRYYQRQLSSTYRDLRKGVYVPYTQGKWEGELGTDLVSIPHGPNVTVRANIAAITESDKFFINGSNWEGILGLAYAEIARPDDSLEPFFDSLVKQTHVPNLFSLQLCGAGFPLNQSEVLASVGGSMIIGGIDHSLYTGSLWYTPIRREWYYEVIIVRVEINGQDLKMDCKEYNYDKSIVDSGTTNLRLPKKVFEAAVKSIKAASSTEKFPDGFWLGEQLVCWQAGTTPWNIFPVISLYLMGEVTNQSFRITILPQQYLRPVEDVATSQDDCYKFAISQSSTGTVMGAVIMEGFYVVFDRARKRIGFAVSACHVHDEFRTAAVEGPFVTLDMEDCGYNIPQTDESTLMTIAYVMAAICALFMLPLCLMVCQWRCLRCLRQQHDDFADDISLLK
Sequence of Cathepsin D (Cat D) (P07339 65-412, species assumed): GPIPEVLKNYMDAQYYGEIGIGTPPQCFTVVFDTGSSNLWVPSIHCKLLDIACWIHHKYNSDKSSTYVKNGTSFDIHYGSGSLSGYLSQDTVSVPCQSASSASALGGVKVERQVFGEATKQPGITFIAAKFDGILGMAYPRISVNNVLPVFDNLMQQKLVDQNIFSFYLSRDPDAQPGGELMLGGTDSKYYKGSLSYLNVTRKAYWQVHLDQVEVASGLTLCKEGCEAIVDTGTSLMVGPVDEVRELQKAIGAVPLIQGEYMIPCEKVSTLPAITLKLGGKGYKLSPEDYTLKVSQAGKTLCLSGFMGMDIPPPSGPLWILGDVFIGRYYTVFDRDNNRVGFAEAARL

For `CN1C(=O)C[C@]2(N=C1N)c1cc(-c3cccnc3F)ccc1Oc1cnc(C3=CCOCC3)cc12` [Example 22, (S)-2′-amino-3-(3,6-dihydro-2H-pyran-4-yl)-7-(2-fluoropyridin-3-yl)-1′-methyl-1′H-spiro[chromeno[2,3-c]pyridine-5,4′-pyrimidin]-6′(5′H)-one], the IC50 was found to be 9.3 nM in assay [1] (setting [3]) and 59.8 nM in assay [2] (setting [4]).
The matching figures for `CN1C(=O)[C@]2(N=C1N)c1cc(-c3cccc(Cl)c3)ccc1Oc1c(F)cc(C3=CCOCC3)cc12` [Example 34, (4S)-2-amino-7′-(3-chlorophenyl)-2′-(3,6-dihydro-2H-pyran-4-yl)-4′-fluoro-1-methylspiro[imidazole-4,9′-xanthen]-5(1H)-one]: 0.3 nM and 9.9 nM.
In the case of `CN1C(=N)NC2(CC1=O)c1cc(-c3cccnc3F)ccc1Oc1cnc(-c3cccnc3F)cc12` (centres unmarked) [Example 21, 3,7-bis(2-fluoropyridin-3-yl)-2′-imino-1′-methyl-2′,3′-dihydro-1′H-spiro[chromeno[2,3-c]pyridine-5,4′-pyrimidin]-6′(5′H)-one], the IC50 in assay [1] (setting [3]) is 48.3 nM; in assay [2] (setting [4]) it was 426 nM.
`CN1C(=N)N[C@]2(CC1=O)c1cc(Br)ccc1Oc1cnc(Cl)cc12` [Example 20-B, (R)-7-bromo-3-chloro-2′-imino-1′-methyl-2′,3′-dihydro-1′H-spiro[chromeno[2,3-c]pyridine-5,4′-pyrimidin]-6′(5′H)-one]: the IC50 in assay [1] (setting [5]) and in assay [2] (setting [6]) was over 1000 nM throughout.
For `CC#Cc1cncc(-c2ccc3c(c2)[C@@]2(N=C(N)N(C)C2=O)c2cc(C4=CCOCC4)cc(F)c2O3)c1` [Example 31, (4R)-2-amino-2′-(3,6-dihydro-2H-pyran-4-yl)-4′-fluoro-1-methyl-7′-(5-(1-propyn-1-yl)-3-pyridinyl)spiro[imidazole-4,9′-xanthen]-5(1H)-one], the IC50 in assay [1] (setting [3]) stood at 179 nM; in assay [2] (setting [4]), 4410 nM.
The matching figures for `COc1ccc2c(c1)[C@]1(N=C(N)N(C)C1=O)c1cc(-c3cncnc3)ccc1O2` (stereo in doubt) [Example 8, 2-amino-2′-methoxy-1-methyl-7′-(pyrimidin-5-yl)spiro[imidazole-4,9′-xanthen]-5(1H)-one]: 13.4 nM and 108 nM.
The matching figures for `CN1C(=O)CC2(N=C1N)c1cc(-c3cccnc3F)ccc1Oc1c2cc(-c2ccnc(F)c2)nc1F` (centres unmarked) [Example 18, 2′-amino-1-fluoro-7-(2-fluoropyridin-3-yl)-3-(2-fluoropyridin-4-yl)-1′-methyl-1′H-spiro[chromeno[2,3-c]pyridine-5,4′-pyrimidin]-6′(5′H)-one]: 2.4 nM and 71.6 nM.
The matching figures for `CN1C(=O)C[C@]2(N=C1N)c1cc(-c3cccnc3F)ccc1Oc1c2cc(Cl)nc1F` [Example 15, (S)-2′-amino-3-chloro-1-fluoro-7-(2-fluoropyridin-3-yl)-1′-methyl-1′H-spiro[chromeno[2,3-c]pyridine-5,4′-pyrimidin]-6′(5′H)-one]: 33.2 nM and 643 nM.
As for `CN1C(=O)C[C@]2(N=C1N)c1cc(-c3cccnc3F)ccc1Oc1c2cc(C2=CC(C)(C)OCC2)nc1F` [Example 26, (S)-2′-amino-3-(6,6-dimethyl-3,6-dihydro-2H-pyran-4-yl)-1-fluoro-7-(2-fluoropyridin-3-yl)-1′-methyl-1′H-spiro[chromeno[2,3-c]pyridine-5,4′-pyrimidin]-6′(5′H)-one], the IC50 was determined as 0.6 nM in assay [1] (setting [3]) and 5 nM in assay [2] (setting [4]).
The matching figures for `CC#Cc1cncc(-c2ccc3c(c2)[C@]2(N=C(N)N(C)C2=O)c2cc(C4=CCOCC4)cc(F)c2O3)c1` (stereo in doubt) [Example 30, (4R)-2-amino-2′-(3,6-dihydro-2H-pyran-4-yl)-4′-fluoro-1-methyl-7′-(5-(1-propyn-1-yl)-3-pyridinyl)spiro[imidazole-4,9′-xanthen]-5(1H)-one, (4S)-2-amino-2′-(3,6-dihydro-2H-pyran-4-yl)-4′-fluoro-1-methyl-7′-(5-(1-propyn-1-yl)-3-pyridinyl)spiro[imidazole-4,9′-xanthen]-5(1H)-one]: 0.9 nM and 13.7 nM.
For the molecule `COc1ccc2c(c1)C1(N=C(N)N(C)C1=O)c1cc(NC(=O)c3ccc(Cl)cn3)ccc1O2` (centres unmarked) [Example 40, N-(2-amino-2′-methoxy-1-methyl-5-oxo-1,5-dihydrospiro[imidazole-4,9′-xanthen]-7′-yl)-5-chloropicolinamide], the values for the IC50 (in assay [1] (setting [3]); in assay [2] (setting [4]); on Cathepsin D (Cat D)) were 6.7 nM, 39 nM and 7.4 µM, respectively.
For `CN1C(=O)C[C@]2(N=C1N)c1cc(-c3cccnc3F)ccc1Oc1c2cc(C2=CCCOC2)nc1F` [Example 17, (S)-2′-amino-3-(5,6-dihydro-2H-pyran-3-yl)-1-fluoro-7-(2-fluoropyridin-3-yl)-1′-methyl-1′H-spiro[chromeno[2,3-c]pyridine-5,4′-pyrimidin]-6′(5′H)-one], the IC50 was 2.8 nM in assay [1] (setting [3]) and 223 nM in assay [2] (setting [4]).
The matching figures for `CN1C(=O)[C@]2(N=C1N)c1cc(C3=CCOCC3)ccc1Oc1ccc(-c3cccnc3F)cc12` (stereo in doubt) [Example 9, 2-amino-2′-(3,6-dihydro-2H-pyran-4-yl)-7′-(2-fluoropyridin-3-yl)-1-methylspiro[imidazole-4,9′-xanthen]-5(1H)-one]: 0.9 nM and 3.6 nM.
With `Cc1ccc(-c2cc(F)c3c(c2)[C@]2(N=C(N)N(C)C2=O)c2cc(-c4cccc(Cl)c4)ccc2O3)cc1` (stereo in doubt) [Example 33, (4R)-2-amino-7′-(3-chlorophenyl)-4′-fluoro-1-methyl-2′-(4-methylphenyl)spiro[imidazole-4,9′-xanthen]-5(1H)-one, (4S)-2-amino-7′-(3-chlorophenyl)-4′-fluoro-1-methyl-2′-(4-methylphenyl)spiro[imidazole-4,9′-xanthen]-5(1H)-one], the IC50 is 4.1 nM in assay [1] (setting [3]) and 237 nM in assay [2] (average IC50, read-out: HEK cell assay).
Turning to `CN1C(=O)CC2(N=C1N)c1cc(-c3cccnc3F)ccc1Oc1c2cc(C2=CCCOC2)nc1F` (centres unmarked) [Example 16, 2′-amino-3-(5,6-dihydro-2H-pyran-3-yl)-1-fluoro-7-(2-fluoropyridin-3-yl)-1′-methyl-1′H-spiro[chromeno[2,3-c]pyridine-5,4′-pyrimidin]-6′(5′H)-one], the IC50 in assay [1] (setting [3]) turned out to be 1.4 nM; in assay [2] (setting [4]), 6.3 nM.
With `CN1C(=O)CC2(N=C1N)c1cc(-c3cccnc3F)ccc1Oc1c2cc(Cl)nc1F` (centres unmarked) [Example 12, 2′-amino-3-chloro-1-fluoro-7-(2-fluoropyridin-3-yl)-1′-methyl-1′H-spiro[chromeno[2,3-c]pyridine-5,4′-pyrimidin]-6′(5′H)-one], the IC50 was 100 to 1000 nM in assay [1] (setting [5]) and over 1000 nM in assay [2] (setting [6]).
As to `CN1C(=O)C[C@]2(N=C1N)c1cc(-c3cccnc3F)ccc1Oc1cnc(C3=CCCOC3)cc12` [Example 24, (S)-2′-amino-3-(5,6-dihydro-2H-pyran-3-yl)-7-(2-fluoropyridin-3-yl)-1′-methyl-1′H-spiro[chromeno[2,3-c]pyridine-5,4′-pyrimidin]-6′(5′H)-one], the IC50 in assay [1] (setting [3]) was 12.1 nM; in assay [2] (setting [4]) it was 52.3 nM.
